The text below walks through data of US20220185832A1, “CD73 INHIBITORS” (BioArdis LLC, priority 2019, published 2022).

In assay [1] the target is T1, Recombinant Human 5′-Nucleotidase (CD73) (Homo sapiens, UniProt P21589).
T1 construct: CHO derived CD73 (Trp27-Lys547), with a C-terminal 6-His tag; 6-His (C); purchased R&D 5795-EN; host or cells: CHO
T1 sequence (P21589 27-547): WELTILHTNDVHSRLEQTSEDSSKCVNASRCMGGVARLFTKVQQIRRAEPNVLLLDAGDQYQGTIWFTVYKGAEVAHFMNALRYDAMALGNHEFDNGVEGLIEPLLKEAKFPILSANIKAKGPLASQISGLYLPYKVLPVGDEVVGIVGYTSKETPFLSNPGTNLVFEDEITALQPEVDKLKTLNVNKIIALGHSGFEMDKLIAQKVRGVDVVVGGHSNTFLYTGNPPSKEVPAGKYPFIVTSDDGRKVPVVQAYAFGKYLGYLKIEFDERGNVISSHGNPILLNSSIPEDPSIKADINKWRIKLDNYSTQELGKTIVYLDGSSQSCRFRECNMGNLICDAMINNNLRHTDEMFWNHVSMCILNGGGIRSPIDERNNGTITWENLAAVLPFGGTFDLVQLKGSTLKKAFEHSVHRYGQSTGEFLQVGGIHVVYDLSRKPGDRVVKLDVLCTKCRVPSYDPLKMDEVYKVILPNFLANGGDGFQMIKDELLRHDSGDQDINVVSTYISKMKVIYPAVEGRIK
The assay can be described thus: CD73 Enzyme Assay. The conditions noted are these: 0.5 nM human CD73, 30 μM AMP, PiColorLock phosphate detection, OD 635 nm; read-out: Potency (IC50). The format is biochemical. The source says: Soluble recombinant CD73 catalyzes the conversion of adenosine monophosphate (AMP) to adenosine and inorganic phosphate. The phosphate detection reagent, PiColorLock™ (Innova Bioscience, Cat #303-0125) is based on the change in absorbance of the dye malachite green in the presence of inorganic phosphate (Pi) and this property can be exploited to measure any enzyme that generates Pi. Recombinant Human 5′-Nucleotidase (CD73) (R&D #5795-EN, CHO derived CD73 (Trp27-Lys547), with a C-terminal 6-His tag) was used in the enzymatic assay. This assay was run in a 384-well plate format (Corning® NBS™ 384 well plates, Cat #3640). The basic assay procedure involves two steps: 1) Enzyme reaction: The CD73 enzyme (R&D #5795-EN) is incubated in the presence or absence of compounds. AMP (sigma, cat #01930) is added to start the kinase reaction. 2) Detection step: “Gold mix” is added to the assay system, then stabilizers are added. After incubation the absorbance of the solution is read at OD 635 nm. The recorded OD signal is proportional to the enzyme activity.
Briefly, 25 μl human CD73 (0.5 nM final concentration) in the enzymatic buffer solutions (20 mM Tris, 25 mM NaCl, 1 mM MgCl2, pH 7.5, 0.005% Tween-20) were mixed with various concentrations of the test compound (dissolved in 100% DMSO). These solutions were incubated for 15 min at 25° C., and subsequently 25 μl AMP (30 μM final concentration) was added to start the reaction. The final reaction mixture of enzyme-substrate-compound was incubated for 20 min at 37° C. Meanwhile, “Gold mix” was prepared shortly before use by adding 1/100 vol. of accelerator to the PiColorLock™ Gold reagent. 12 μL/well of the “Gold mix” was added to assay plate containing 50 μL enzyme reaction buffer and incubated at 25° C. for 5 min. 5 μL/well stabilizer was added to the assay plate and incubated at 25° C. for 30 min. The absorbance of the well solutions was measured at 635 nm on a Spark 10M instrument (TECAN).
The percent (%) inhibition at each concentration of a compound was calculated relative to the OD value in the Max and Min control wells contained within each assay plate. The Max control wells contained enzyme and substrate as 0% inhibition, and the Min control wells only contained substrate without enzyme as 100% inhibition. The concentrations and percent inhibition values for a test compound are plotted and the concentration of the compound required to achieve 50% inhibition (IC50) was determined with a four-parameter logistic dose response equation.

For assay [2], the target named is T2, Cell surface CD73 of U87 MG human glioblastoma cells (Homo sapiens, UniProt P21589).
T2 construct: Cell surface CD73 catalyzes the conversion of adenosine monophosphate (AMP) to adenosine and inorganic phosphate; endogenous in cells; host or cells: U87 MG human glioblastoma cells
T2 sequence (P21589 27-549): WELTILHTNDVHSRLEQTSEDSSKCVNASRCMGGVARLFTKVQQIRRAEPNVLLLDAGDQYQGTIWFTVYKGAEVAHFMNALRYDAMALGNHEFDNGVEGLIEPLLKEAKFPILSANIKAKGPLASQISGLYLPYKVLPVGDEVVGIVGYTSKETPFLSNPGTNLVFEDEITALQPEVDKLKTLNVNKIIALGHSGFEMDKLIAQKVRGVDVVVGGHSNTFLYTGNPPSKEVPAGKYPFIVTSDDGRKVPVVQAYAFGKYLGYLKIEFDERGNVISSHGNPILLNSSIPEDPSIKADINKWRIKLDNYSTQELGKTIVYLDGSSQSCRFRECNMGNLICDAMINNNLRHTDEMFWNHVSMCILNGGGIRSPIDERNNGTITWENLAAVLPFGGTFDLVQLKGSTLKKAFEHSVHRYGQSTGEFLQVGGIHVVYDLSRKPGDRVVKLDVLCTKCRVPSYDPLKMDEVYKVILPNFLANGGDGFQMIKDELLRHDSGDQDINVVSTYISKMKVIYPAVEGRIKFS
Put plainly: CD73 Cellular Assay. Particulars: 5000 cells per well, 30 μM AMP, PiColorLock phosphate detection in supernatant, read-out: Potency (IC50). Type of assay: cell-based. As for the experimental part:
Cell surface CD73 catalyzes the conversion of adenosine monophosphate (AMP) to adenosine and inorganic phosphate. U87 MG human glioblastoma cells express high level of CD73. Cells are treated with compounds in a 96-well assay plate and supernatants are collected into a 384-well detection plate. The concentration of inorganic phosphate (Pi) in the supernatants is determined using the phosphate detection reagent, PiColorLock™ (Innova Bioscience, Cat #303-0125) following the manufacturer's instructions.
Briefly, on the day of the assay, U87 MG cells were harvested and resuspended in assay buffer which consisted of 20 mM HEPES, pH=7.4, 137 mM NaCl, 5.4 mM KCl, 1.3 mM CaCl2, 4.2 mM NaHCO3 and 0.1% glucose. To test the effect of compounds on cellular CD73 enzymatic activity, 500 nL/well of compounds dissolved in DMSO were added to a 96-well TC-treated microplate (Corning #3599). Next, 80 μL/well of U87 MG cells in assay buffer were added to assay plate. After 30 minutes of incubation in an atmosphere of 5% CO2 at 37° C., 20 μL/well of 150 μM AMP (Adenosine 5′-monophosphate monohydrate, Sigma, Cat #01930) in assay buffer was added to assay plate. Final assay conditions consisted of 5000 cells per well in 0.5% DMSO and 30 μM AMP substrate. After 50 minutes of incubation in an atmosphere of 5% CO2 at 37° C., 50 μL/well of supernatant was transferred to the 384-well detection plate (Corning® NBSTM 384 well plates, Cat #3640). Meanwhile “Gold mix” was prepared shortly before use by adding 1/100 volume of accelerator to the PiColorLock™ Gold reagent. 12 μL/well of the “Gold mix” was added to detection plate containing 50 μL/well of supernatant and incubated at 25° C. for 5 minutes. 5 μL/well stabilizer was added to the detection plate and incubated at 25° C. for 30 minutes. The absorbance at 635 nm was measured on a Spark 10M instrument (TECAN).
The percent (%) inhibition at each concentration of a compound was calculated relative to the OD value in the Max and Min control wells contained within each assay plate. The Max control wells contained cells and substrate as 0% inhibition, and the Min control wells only contained cells as 100% inhibition. The concentrations and percent inhibition values for a test compound are plotted and the concentration of the compound required to achieve 50% inhibition (IC50) was determined with a four-parameter logistic dose response equation.

Bounds are passed on as bounds.

For `O=P(O)(O)CP(=O)(O)OC[C@H]1O[C@@H](c2ccc3c(NC4CCCC4)nc(Cl)nc3c2)[C@H](O)[C@@H]1O` [Compound 4, (((((2R,3S,4R,5S)-5-(2-chloro-4-(cyclopentylamino)quinazolin-7-yl)-3,4-dihydroxytetrahydrofuran-2-yl)methoxy)(hydroxy)phosphoryl)methyl)phosphonic acid], the IC50 in assay [1] and in assay [2] was < 10 nM each time.
Take `O=P(O)(O)CP(=O)(O)OC[C@H]1O[C@@H](c2ccc3c(NCC4CCCC4)nc(Cl)nc3c2)[C@H](O)[C@@H]1O` [Compound 5, (((((2R,3S,4R,5S)-5-(2-chloro-4-((cyclopentylmethyl)amino)quinazolin-7-yl)-3,4-dihydroxytetrahydrofuran-2-yl)methoxy)(hydroxy)phosphoryl)methyl)phosphonic acid]: the half-inhibitory concentration (IC50) was 10 to 99 nM in assay [1] and < 10 nM in assay [2].
In the case of `O=P(O)(O)CP(=O)(O)OC[C@H]1O[C@@H](c2ccc3c(NCC4CCCO4)nc(Cl)nc3c2)[C@H](O)[C@@H]1O` (stereo partly drawn) [Compound 6, (((((2R,3S,4R,5S)-5-(2-chloro-4-(((tetrahydrofuran-2-yl)methyl)amino)quinazolin-7-yl)-3,4-dihydroxytetrahydrofuran-2-yl)methoxy)(hydroxy)phosphoryl)methyl)phosphonic acid], the IC50 is 10 to 99 nM in assay [1] and < 10 nM in assay [2].
For `O=P(O)(O)CP(=O)(O)OC[C@H]1O[C@@H](c2ccc3c(NC4CCC4)nc(Cl)nc3c2)[C@H](O)[C@@H]1O` [Compound 7, (((((2R,3S,4R,5S)-5-(2-chloro-4-(cyclobutylamino)quinazolin-7-yl)-3,4-dihydroxytetrahydrofuran-2-yl)methoxy)(hydroxy)phosphoryl)methyl)phosphonic acid], in that order: 10 to 99 nM and < 10 nM.
With `O=P(O)(O)CP(=O)(O)OC[C@H]1O[C@@H](c2ccc3c(NCC4CCC4)nc(Cl)nc3c2)[C@H](O)[C@@H]1O` [Compound 8, (((((2R,3S,4R,5S)-5-(2-chloro-4-((cyclobutylmethyl)amino)quinazolin-7-yl)-3,4-dihydroxytetrahydrofuran-2-yl)methoxy)(hydroxy)phosphoryl)methyl)phosphonic acid], the half-maximal inhibitory concentration (IC50) in assay [1] and in assay [2] was < 10 nM in each case.
In the case of `O=P(O)(O)CP(=O)(O)OC[C@H]1O[C@@H](c2ccc3c(NCC4CC4)nc(Cl)nc3c2)[C@H](O)[C@@H]1O` [Compound 9, (((((2R,3S,4R,5S)-5-(2-chloro-4-((cyclopropylmethyl)amino)quinazolin-7-yl)-3,4-dihydroxytetrahydrofuran-2-yl)methoxy)(hydroxy)phosphoryl)methyl)phosphonic acid], the IC50 in assay [1] is 10 to 99 nM; in assay [2] it was < 10 nM.
`CN(c1ncnc2cc([C@@H]3O[C@H](COP(=O)(O)CP(=O)(O)O)[C@@H](O)[C@H]3O)ccc12)C1CCCC1` [Compound 10, (((((2R,3S,4R,5S)-5-(4-(cyclopentyl(methyl)amino)quinazolin-7-yl)-3,4-dihydroxytetrahydrofuran-2-yl)methoxy)(hydroxy)phosphoryl)methyl)phosphonic acid]: the concentration for half-maximal inhibition (IC50) is 10 to 99 nM in assay [1] and < 10 nM in assay [2].
Taken in the same sequence, the figures for `O=P(O)(O)CP(=O)(O)OC[C@H]1O[C@@H](c2ccc3c(NCc4ccccc4)ncnc3c2)[C@H](O)[C@@H]1O` [Compound 12, [({[(2R,3S,4R,5S)-5-[4-(benzylamino)quinazolin-7-yl]-3,4-dihydroxyoxolan-2-yl]methoxy}(hydroxy)phosphoryl)methyl]phosphonic acid] were 10 to 99 nM and < 10 nM.
For `O=P(O)(O)CP(=O)(O)OC[C@H]1O[C@@H](c2ccc3c(NCc4ccccc4)nc(Cl)nc3c2)[C@@H](F)[C@@H]1O` [Compound 13, (((((2R,3R,4S,5S)-5-(4-(benzylamino)-2-chloroquinazolin-7-yl)-4-fluoro-3-hydroxytetrahydrofuran-2-yl)methoxy)(hydroxy)phosphoryl)methyl)phosphonic acid], in that order: 100 to 999 nM and 10 to 99 nM.
Turning to `Cc1nc(NCc2ccccc2)c2ccc([C@@H]3O[C@H](COP(=O)(O)CP(=O)(O)O)[C@@H](O)[C@H]3O)cc2n1` [Compound 17, (((((2R,3S,4R,5S)-5-(4-(benzylamino)-2-methylquinazolin-7-yl)-3,4-dihydroxytetrahydrofuran-2-yl)methoxy)(hydroxy)phosphoryl)methyl)phosphonic acid], the half-inhibitory concentration (IC50) in assay [1] was 10 to 99 nM; in assay [2], < 10 nM.
